Entries after “also recorded” stand apart in the source; their conditions may differ.
Tests used:
human A3 receptor = molecular target: T1, human A3 receptor (Homo sapiens, UniProt P0DMS8); test: Radioligand binding, [125I]AB-MECA, HEK-293 cell membranes; set-up: host or cells: HEK-293; conditions: read-out: Ki(hA3)
T1 sequence (P0DMS8 1-318): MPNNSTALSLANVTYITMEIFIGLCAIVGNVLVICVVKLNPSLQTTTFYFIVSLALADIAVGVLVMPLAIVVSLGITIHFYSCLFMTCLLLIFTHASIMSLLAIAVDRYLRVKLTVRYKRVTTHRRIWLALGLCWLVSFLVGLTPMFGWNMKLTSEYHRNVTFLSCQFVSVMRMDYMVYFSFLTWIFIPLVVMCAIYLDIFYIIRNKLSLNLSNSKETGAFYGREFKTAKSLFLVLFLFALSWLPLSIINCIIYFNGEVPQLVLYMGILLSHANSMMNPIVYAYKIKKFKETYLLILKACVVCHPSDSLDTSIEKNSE
Description: Natl. Acad. Sci. […] Natl. Acad. Sci. U.S.A. 89:7432-7436, 1992) was performed as described at 4° C. (Olah et al., Mol. Pharmacol. 45:978-982, 1994). The assay medium consisted of a buffer containing 10 mM Mg^2+, 50 mM Tris, 3 units/mL adenosine deaminase, and 1 mM EDTA, at pH 8.0 (4° C.). […] Incubations were terminated by rapid filtration over Whatman GF/B filters, using a Brandell cell harvester (Brandell, Gaithersburg, MD). The tubes were rinsed three times with 3 mL buffer each. At least five different concentrations of competitor, spanning 3 orders of magnitude adjusted appropriately for the IC50 of each compound, were used. IC50 values, calculated with the nonlinear regression method implemented in the InPlot program (Graph-PAD, San Diego, Calif.), were converted to apparent Ki values using the Cheng-Prusoff equation (Cheng et al., Biochem.

[1] = test system: HCE (human ciliary epithelial) cell line, NPE cells; test: Cell volume (shrinkage) of NPE cells in isosmotic solution, Coulter Counter, 5 μM gramicidin; type: cell-based
Description: A 0.5-ml aliquot of the HCE cell suspension in DMEM was added to 20 ml of each test solution, which contained (in mM): 110.0 NaCl, 15.0HEPES [4-(2-hydroxyethyl)-1-piperazineethanesulfonic acid], 2.5 CaCl2, 1.2 MgCl2, 4.7 KCl, 1.2 KH2PO4, 30.0 NaHCO3, and 10.0 glucose, at a pH of 7.4 and osmolality of 298-305 mOsm. Parallel aliquots of cells were studied on the same day. One aliquot usually served as a control, and the others were exposed to different experimental conditions at the time of suspension. The same amount of solvent vehicle (dimethylformamide, DMSO or ethanol) was always added to the control and experimental aliquots. The sequence of studying the suspensions was varied to preclude systematic time-dependent artifacts (Civan et al., Exp. Eye Res. 54:181-191, 1992).
Cell volumes of isosmotic suspensions were measured with a Coulter Counter (model ZBI-Channelyzer II), using a 100-μm aperture (Civan et al., supra., 1994). As previously described (Wax et al., supra., 1993), the cell volume (vC) of the suspension was taken as the peak of the distribution function. Cell shrinkage was fit as a function of time (t) to a monoexponential function:
vC=v∞+(v0−v∞)−[e^−(t−t^0^)/τ] {1}
where v∞ is the steady-state cell volume, v0 is the cell volume at the first point (t0) of the time course to be fit, and τ is the time constant of the shrinkage. For purposes of data reduction, the data were normalized to the first time point, taken to be 100% isotonic volume. Fits were obtained by nonlinear least-squares regression analysis, permitting both v∞and τ to be variables.
In order to differentiate among these receptors, the experiments were repeated in the present study using a series of agonists and antagonists selective for these receptors. As we wished to identify the effects of these receptors specifically on Cl^− channels, 5 μM gramicidin D was included in all solutions to eliminate any potential contribution from K^+ channels. This ionophore readily partitions into plasma membranes to form a cation-selective pore, and is widely used for studying volume regulation (Hoffmann et al., in Interaction of Cell Volume and Cell Function, Lang et al., eds., Springer, Heidelberg, Germany, pp. 188-248, (ACEP Series 14), 1993)). Under these conditions, release of cell Cl^− becomes the rate-limiting factor in both hypo-(Civan et al., Exp. Eye Res. 54:181-191, 1992) and isoosmotic cell shrinkage (Carre et al., supra., 1997).

[2] = test system: bovine pigmented ciliary epithelial (PE) cells; test: Cell volume (shrinkage) of PE cells in isoosmotic suspension, Coulter Counter; type: cell-based; conditions: for shrinkage by agent in the presence or absence of ATP / effect of agent on shrinkage in the presence of ATP: 10 μM agent; for shrinkage by agent in the presence or absence of ATP: with or without 100 μM ATP; for effect of estradiol on shrinkage produced by ATP and tamoxifen: 100 nM estradiol; for effect of estradiol on cell volume in the absence of tamoxifen: 100 nM, FIG. 16B; for effect of PKC modulator on cell volume in the presence of ATP: 0.3 μM staurosporine, 250 μM DiC8
[3] = FIG. 2D, 100 nM Cl-IB-MECA, IB-MECA in parallel
[4] = 10 μM trifluoperazine alone, FIG. 14B
[5] = 100 μM ATP + 10 μM TMX + 10 μM trifluoperazine, FIG. 14A
[6] = 100 μM ATP + 10 μM agent, FIG. 14A
[7] = 100 μM ATP + 10 μM trifluoperazine, FIG. 14B
[8] = 100 μM ATP + 10 μM agent, FIG. 13A

Compound CCOC(=O)c1c(CCN2C(=O)c3ccccc3C2=O)c(C(=O)SCC)c(CC)[n+](C)c1-c1ccccc1 [Compound 19] has a Ki (human A3 receptor) of 1250 nM.

CCSC(=O)c1c(CC)c(C(=O)OCCF)c(-c2ccccc2)[n+](C)c1CC [Compound 14] was tested, and the Ki (human A3 receptor) was 364 nM.

CCCOC(=O)c1c(CCSC(C)=O)c(C(=O)SCC)c(CC)[n+](C)c1-c1ccccc1 [Compound 18, 1-Methyl-2-ethyl-4-(2-acetylthioethyl)-3-(ethylsulfanylcarbonyl)-5-propyloxycarbonyl-6-phenylpyridinium Iodide] showed a Ki (human A3 receptor) of 538 nM.

For CNC(=O)[C@H]1O[C@@H](n2cnc3c(NCc4cccc(I)c4)nc(Cl)nc32)[C@H](O)[C@@H]1O [Cl-IB-MECA], the “steady-state cell volume (V∞)” value [1, 3] was 97.9±0.2% and the “time constant of the shrinkage (τ)” value [1, 3] was 2.5 ± 1.3 min.

In the case of CCOC(=O)c1c(CC)c(C(=O)SCC)c(CC)[n+](CC)c1-c1ccccc1 [Compound 12, 1-Ethyl-2,4-diethyl-3-(ethylsufanylcarbonyl)-5-ethyloxycarbonyl-6-phenylpyridinium Iodide], the Ki (human A3 receptor) is reported as 577 nM.

CN1CCN(CCCN2c3ccccc3Sc3ccc(C(F)(F)F)cc32)CC1 [trifluoperazine] was tested, and the “shrinkage by agent in the presence or absence of ATP” value [2] was “the same, whether or not ATP was present; also recorded: reduced cell volume on their own”, the “steady-state cell volume (v∞)” value [2, 4] was 96.8±0.2% and the “time constant of the shrinkage (τ)” value [2, 4] was 0.9 ± 0.6 min. For the same compound, the “effect of trifluoperazine on shrinkage produced by ATP alone” value ([2]; 10 μM trifluoperazine, 100 μM ATP) was “enhanced the shrinkage produced by ATP alone”, the “effect of trifluoperazine on the response to ATP+TMX” value ([2]; 10 μM trifluoperazine, 100 μM ATP, 10 μM tamoxifen) was “reduced the response” and the “steady-state cell volume (v∞)” value [2, 5] was 95.7±0.4%. For the same compound, the “time constant of the shrinkage (τ)” value [2, 5] was 3.9 ± 1.2 min, the “steady-state cell volume (v∞)” value [2, 6] was 96.2±0.3% and the “time constant of the shrinkage (τ)” value [2, 6] was 6.8 ± 1.4 min. The “steady-state cell volume (v∞)” value [2, 7] was 96.7±0.3% and the “time constant of the shrinkage (τ)” value [2, 7] was 0.5 ± 1.5 min.

C[C@]12CC[C@@H]3c4ccc(O)cc4CC[C@H]3[C@@H]1CC[C@H]2O [17α-estradiol] was tested, and the “effect of estradiol on shrinkage produced by ATP and tamoxifen” value ([2]; 100 μM ATP, 10 μM tamoxifen) was “no significant effect” and the “effect of estradiol on cell volume in the absence of tamoxifen” value [2] was “very small effects”.

CCOC(=O)c1c(CC)c(C(=O)SCC)c(C)[n+](C)c1-c1ccccc1 [Compound 10, 1-Methyl-2-methyl-4-ethyl-3-(ethylsulfanylcarbonyl)-5-ethyloxycarbonyl-6-phenylpyridinium Iodide] showed a Ki (human A3 receptor) of 379 nM.

CCCCc1c(C(=O)SCC)c(CC)c(C(=O)OCC)c(-c2ccccc2)[n+]1C [Compound 20, 1-Methyl-2-butyl-4-ethyl-3-(ethylsulfanylcarbonyl)-5-ethyloxycarbonyl-6-phenylpyridinium Iodide] showed a Ki (human A3 receptor) of 436 nM.

CCCOC(=O)c1c(CC)c(C(=O)SCC)c(CC)[n+](C)c1-c1ccccc1 [Compound 15, 1-Methyl-2-ethyl-4-ethyl-3-(ethylsulfanylcarbonyl)-5-propyloxycarbonyl-6-phenylpyridinium Iodide] gave a Ki (human A3 receptor) of 483 nM.

CCCOC(=O)c1c(CCC)c(C(=O)SCC)c(CCOCc2ccccc2)[n+](C)c1-c1ccccc1 [Compound 22, 1-Methyl-2-(2-benzyloxylethyl)-4-propyl-3-(ethylsulfanylcarbonyl)-5-propyloxycarbonyl-6-phenylpyridinium Iodide] was tested, and the Ki (human A3 receptor) was 348 nM.

In the case of CCNC(=O)[C@H]1O[C@@H](n2cnc3c(N)nc(NCCc4ccc(CCC(=O)O)cc4)nc32)[C@H](O)[C@@H]1O [CGS-21680, 2-[4-[(2-carboxyethyl)phenyl]ethylamino]-5′-N-ethylcarbamoyladenosine], the “effect of adenosine-receptor agonist on isoosmotic volume” value (“effect of adenosine-receptor agonist” below) ([1]; 100 nM agonist) is reported as “no detectable effect” and the “effect of adenosine-receptor agonist” value ([1]; 3 μM agonist) is reported as “triggered isoosmotic shrinkage”.

With CN[C@@H]1C[C@H]2O[C@@](C)([C@@H]1OC)n1c3ccccc3c3c4c(c5c6ccccc6n2c5c31)C(=O)NC4 [staurosporine] the “effect of PKC modulator on cell volume in the presence of ATP” value ([2]; 100 μM ATP) was “small, insignificant shrinkage”.

In the case of NCCc1c[nH]cn1 [histamine], the “effect of agent on shrinkage in the presence of ATP” value ([2]; 100 μM ATP, FIG. 13A) is reported as “did not enhance the volumetric response”, the “steady-state cell volume (v∞)” value [2, 8] is reported as 97.4±0.5% and the “time constant of the shrinkage (τ)” value [2, 8] is reported as 21.0 ± 8.0 min.

For CCCOC(=O)c1c(CCC)c(C(=O)SCCCF)c(CC)[n+](C)c1-c1ccccc1 [Compound 17, 1-Methyl-2-ethyl-4-propyl-3-(3-fluoropropylsulfanylcarbonyl)-5-propyloxycarbonyl-6-phenylpyridinium Iodide], the Ki (human A3 receptor) was 465 nM.

With CCC[n+]1c(CC)c(C(=O)SCC)c(CC)c(C(=O)OCC)c1-c1ccccc1 [Compound 13, 1-Propyl-2,4-diethyl-3-(ethylsulfanylcarbonyl)-5-ethyloxycarbonyl-6-phenylpyridinium Iodide] the Ki (human A3 receptor) was 1350 nM.

C[N+](C)(C)CCOC(N)=O [carbachol] was tested, and the “effect of agent on shrinkage in the presence of ATP” value ([2]; 100 μM ATP, FIG. 13A) was “did trigger a prompt shrinkage; also recorded: enhanced shrinkage”, the “shrinkage by agent in the presence or absence of ATP” value [2] was “nearly the same degree of shrinkage in the presence or absence of 100 μM ATP; also recorded: reduced cell volume on their own” and the “steady-state cell volume (v∞)” value [2, 8] was 94.2±0.4%. The “time constant of the shrinkage (τ)” value [2, 8] was 5.6 ± 1.2 min.

C[C@]12CC[C@@H]3c4ccc(O)cc4CC[C@H]3[C@@H]1CC[C@@H]2O [17β-estradiol] was tested, and the “effect of estradiol together with ATP on cell volume” value ([2]; 100 nM 17β-estradiol, 100 μM ATP) was “small and slow shrinkage”, the “effect of estradiol on shrinkage produced by ATP and tamoxifen” value ([2]; 100 μM ATP, 10 μM tamoxifen) was “reduced; also recorded: significantly inhibited” and the “effect of estradiol on cell volume in the absence of tamoxifen” value [2] was “very small effects”.

OC[C@H]1O[C@@H](n2cnc3c(NC4CCCC4)ncnc32)[C@H](O)[C@@H]1O [CPA, N^6-cyclopentyladenosine] was tested, and the “effect of adenosine-receptor agonist” value ([1]; 30 nM agonist) was “no significant shrinkage”, the “effect of adenosine-receptor agonist” value ([1]; 100 nM agonist) was “small slow effect of uncertain significance; also recorded: little effect” and the “effect of adenosine-receptor agonist” value ([1]; 1 μM agonist) was “no significant shrinkage”. For the same compound, the “effect of adenosine-receptor agonist” value ([1]; 3 μM agonist) was “no significant shrinkage; also recorded: none at all”.

For CCCCCCCC(=O)OCC(CO)OC(=O)CCCCCCC (stereo not shown) [DiC8], the “effect of PKC modulator on cell volume in the presence of ATP” value ([2]; 100 μM ATP) was “no significant effect”.

In the case of CCCOC(=O)c1c(CCC)c(C(=O)SCC)c(CC)[n+](C)c1-c1ccccc1 [Compound 16, 1-Methyl-2-ethyl-4-propyl-3-(ethylsulfanylcarbonyl)-5-propyloxycarbonyl-6-phenylpyridinium Iodide], the Ki (human A3 receptor) is reported as 2020 nM.

For CCOC(=O)c1c(CC)c(C(=O)SCC)c(C2CCC2)[n+](C)c1-c1ccccc1 [Compound 21, 1-Methyl-2-cyclobutyl-4-ethyl-3-(ethylsulfanylcarbonyl)-5-ethyloxycarbonyl-6-phenyl pyridinium Iodide], the Ki (human A3 receptor) was 1410 nM.

O=S(=O)(O)c1cc(N=C=S)ccc1C=Cc1ccc(N=C=S)cc1S(=O)(=O)O [DIDS, 4,4′-diisothiocyano-2,2′-disulfonic acid] was tested, and the “effect of Cl− channel blocker on ATP, tamoxifen-activated shrinkage” value ([2]; DIDS 500 μM, NPPB 100 μM) was “inhibited the volume reduction; also recorded: reduced”.
